Data set [1] deals with T1, hTRPC7 (Homo sapiens, UniProt Q9HCX4).
T1 construct: expressed in transfected cells; host or cells: HEK293, transient transfection, pMO vector
T1 sequence (Q9HCX4 1-862): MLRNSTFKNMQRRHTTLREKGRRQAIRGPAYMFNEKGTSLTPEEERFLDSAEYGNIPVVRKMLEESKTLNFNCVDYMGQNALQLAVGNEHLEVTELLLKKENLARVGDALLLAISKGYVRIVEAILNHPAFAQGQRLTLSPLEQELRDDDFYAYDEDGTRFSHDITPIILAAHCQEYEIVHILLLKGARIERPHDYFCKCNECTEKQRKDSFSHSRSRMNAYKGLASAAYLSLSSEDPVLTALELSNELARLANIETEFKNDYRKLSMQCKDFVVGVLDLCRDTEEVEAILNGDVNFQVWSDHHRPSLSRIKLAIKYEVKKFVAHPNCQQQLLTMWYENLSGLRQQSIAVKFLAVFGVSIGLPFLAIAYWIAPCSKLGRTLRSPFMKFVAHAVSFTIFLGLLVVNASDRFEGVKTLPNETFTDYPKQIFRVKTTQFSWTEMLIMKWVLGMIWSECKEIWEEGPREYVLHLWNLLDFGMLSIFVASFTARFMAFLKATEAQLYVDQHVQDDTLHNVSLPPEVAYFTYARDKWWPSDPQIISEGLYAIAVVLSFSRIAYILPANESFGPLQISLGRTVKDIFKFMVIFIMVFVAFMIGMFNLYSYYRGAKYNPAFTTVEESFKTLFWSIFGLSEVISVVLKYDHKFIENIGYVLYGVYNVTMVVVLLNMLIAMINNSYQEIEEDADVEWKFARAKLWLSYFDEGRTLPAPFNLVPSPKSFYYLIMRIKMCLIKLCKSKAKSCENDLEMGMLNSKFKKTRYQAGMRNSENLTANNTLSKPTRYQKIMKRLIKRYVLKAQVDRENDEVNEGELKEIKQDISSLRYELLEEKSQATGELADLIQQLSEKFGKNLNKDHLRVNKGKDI
Put plainly: whole-cell patch clamp selectivity, HEK 293 cells overexpressing hTRPC7. In kind it is cell-based. The settings on record: HEK293, with agonist, solutions without Ca2+, read-out: % of the current of hTRPC7 inhibited. As for the experimental part:
Human embryonic kidney 293 (HEK293; catalog number CRL-1573) cells were cultured in Dulbecco's modified Eagle's medium (Invitrogen) supplemented with 10% fetal bovine serum and 1% penicillin-streptomycin at 37° C. and 5% CO2. Constructs cloned in pMO (a pcDNA3-modified vector) were co-transfected with GFP-pMO, using Lipofectamine 2000 (Invitrogen) according to the manufacturer's instructions. Macroscopic currents in the whole-cell patch clamp configuration were recorded 18-24 h post-transfection. The extracellular solution contained 140 mM NaCl, 6 mM KCl, 2 mM MgCl2, 10 mM HEPES, and 10 mM glucose (pH 7.4). Pipettes were made of borosilicate glass (outer diameter, 1.5 mm; inner diameter, 1.10 mm; Sutter Instruments) and fire-polished with a resistance between 2.8 and 4.0 megaohms when filled with an intracellular solution that contained 140 mM CsCl, 5 mM EGTA, and 10 mM HEPES, pH 7.2. Currents were recorded with a Multiclamp 700B amplifier (Molecular Devices) using a 1-s ramp from −100 to 100 mV. […] Data were acquired with a sampling rate of 20 kHz, low-pass filtered (10 kHz), and analyzed offline using Clampfit v10.4.2.0 (Molecular Devices). […]

A short description of data set [2]: brain permeability and half-life after systemic administration in C57BL/6 mice. In kind it is in vivo. The procedure: The brain permeability of compound 22 was evaluated with systemic administration (20 mg/kg, i.v.) in C57BL/6 mice. Blood samples were collected at nine time points after compound administration: 5 min, 15 min, 30 min, 1 hr, 2 hr, 4 hr, 8 hr, 16 hr, and 24 hr. Brain homogenates were then extracted and analyzed for concentrations of compound 22 by liquid chromatography-mass spectrometry (LC-MS). The half-life (T½) in the brain was calculated by GraphPad Prism software.

For `CCNC(=O)c1cnn(-c2ccc(-n3ccc(Cl)c(Cl)c3=O)cc2)c1C(F)(F)F` [Compound 22], in data set [1], the inhibition at 10 µM was around 22%. For the same compound, the Kp at 1 h in data set [2] (C57BL/6, mouse, brain/plasma, iv, 20 mg/kg, i.v., 1 h after injection, read-out: brain-to-plasma ratio) was around 0.15. In data set [2] (C57BL/6, mouse, plasma, iv, 20 mg/kg, i.v., read-out: plasma T½ (converted)), the half-life is around 4 h. Also, in data set [2] (one-dose injection), the “duration of brain concentration above TRPC3 IC50” value lay within 18 to 20 h.

These data come from patent US20230265068A1, “TRANSIENT RECEPTOR POTENTIAL CANONICAL 3 INHIBITORS AND METHODS OF USE THEREOF” (University of Tennessee Research Foundation, priority 2020, published 2023).
